From BindingDB's records for patent US11013745 (Shanghai Institute of Material Medica, Chinese Academy of …, 2021)
pIC50: −log10 of the molar value.

Target: T1, Histone-binding protein RBBP4/Histone-lysine N-methyltransferase EZH2/Polycomb protein EED [40-441]/Polycomb protein SUZ12 (Homo sapiens, UniProt O75530+Q09028+Q15022+Q15910)
T1 construct: 40-441
Experiment: TR-FRET Assay
Experimental: The TR-FRET method was used to measure the PRC2 enzyme activity. First, the enzyme was mixed with compounds at different concentrations and incubated for 30 min at room temperature. The biotin-labeled histone H3 peptide substrate and the cofactor S-adenosylmethionine (SAM) were added to initiate the enzymatic reaction. After reaction was performed at room temperature for 4 hour, Acceptor and Donor were added and incubated for half an hour. The multifunctional microplate reader EnVision (Perkin Elmer Inc.) was used to detect the fluorescence signal.

T1 sequence (Q15910 whole entry): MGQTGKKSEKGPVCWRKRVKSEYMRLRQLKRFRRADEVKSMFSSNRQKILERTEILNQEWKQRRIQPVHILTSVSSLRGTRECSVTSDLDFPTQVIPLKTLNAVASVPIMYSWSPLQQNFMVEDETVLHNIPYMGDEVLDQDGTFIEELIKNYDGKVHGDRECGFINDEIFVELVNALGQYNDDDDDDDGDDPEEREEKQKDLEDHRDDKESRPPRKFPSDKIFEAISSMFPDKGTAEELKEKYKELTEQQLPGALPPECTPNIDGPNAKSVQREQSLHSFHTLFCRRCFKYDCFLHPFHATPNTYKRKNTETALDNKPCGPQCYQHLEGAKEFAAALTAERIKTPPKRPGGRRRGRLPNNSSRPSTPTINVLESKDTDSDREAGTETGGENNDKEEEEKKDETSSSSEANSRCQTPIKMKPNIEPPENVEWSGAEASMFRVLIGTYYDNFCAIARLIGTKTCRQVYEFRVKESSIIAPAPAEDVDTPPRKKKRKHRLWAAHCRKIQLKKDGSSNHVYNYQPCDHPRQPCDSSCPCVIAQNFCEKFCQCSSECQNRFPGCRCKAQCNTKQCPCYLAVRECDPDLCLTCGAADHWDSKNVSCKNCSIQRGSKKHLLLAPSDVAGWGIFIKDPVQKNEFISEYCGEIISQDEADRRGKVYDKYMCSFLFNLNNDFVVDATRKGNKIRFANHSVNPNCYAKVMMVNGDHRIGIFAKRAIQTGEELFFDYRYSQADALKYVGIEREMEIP
T1 sequence (Q15022 whole entry): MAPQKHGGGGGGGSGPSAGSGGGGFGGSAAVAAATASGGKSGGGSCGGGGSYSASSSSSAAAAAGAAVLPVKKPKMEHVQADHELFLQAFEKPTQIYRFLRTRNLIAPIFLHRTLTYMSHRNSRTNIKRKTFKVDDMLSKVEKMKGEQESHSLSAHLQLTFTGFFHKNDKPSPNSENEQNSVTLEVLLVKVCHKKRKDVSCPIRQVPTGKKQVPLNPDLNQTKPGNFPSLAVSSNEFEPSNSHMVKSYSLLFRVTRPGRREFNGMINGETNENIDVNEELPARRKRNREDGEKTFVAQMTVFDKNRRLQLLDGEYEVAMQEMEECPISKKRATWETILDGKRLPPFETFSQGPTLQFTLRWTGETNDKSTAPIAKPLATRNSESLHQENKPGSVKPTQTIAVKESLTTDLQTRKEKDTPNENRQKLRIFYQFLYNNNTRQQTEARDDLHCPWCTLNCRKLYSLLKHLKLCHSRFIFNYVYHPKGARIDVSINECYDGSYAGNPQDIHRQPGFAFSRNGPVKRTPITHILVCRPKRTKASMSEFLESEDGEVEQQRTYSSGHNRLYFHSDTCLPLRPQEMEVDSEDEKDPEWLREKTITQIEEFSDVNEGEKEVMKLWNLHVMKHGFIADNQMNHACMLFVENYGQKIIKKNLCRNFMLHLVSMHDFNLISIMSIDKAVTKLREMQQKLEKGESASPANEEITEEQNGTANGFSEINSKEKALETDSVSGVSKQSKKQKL
T1 sequence (Q09028 whole entry): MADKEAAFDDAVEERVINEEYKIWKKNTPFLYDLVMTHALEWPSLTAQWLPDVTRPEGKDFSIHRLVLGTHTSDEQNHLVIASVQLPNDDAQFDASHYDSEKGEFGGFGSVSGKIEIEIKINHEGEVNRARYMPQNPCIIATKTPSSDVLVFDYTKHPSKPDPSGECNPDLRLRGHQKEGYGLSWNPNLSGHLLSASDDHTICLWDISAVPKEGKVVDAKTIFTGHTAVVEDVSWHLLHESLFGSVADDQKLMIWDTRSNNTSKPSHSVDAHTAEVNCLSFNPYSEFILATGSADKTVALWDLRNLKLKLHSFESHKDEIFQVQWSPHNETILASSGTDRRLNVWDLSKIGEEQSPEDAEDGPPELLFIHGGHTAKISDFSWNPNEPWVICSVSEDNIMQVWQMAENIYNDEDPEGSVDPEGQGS
T1 sequence (O75530 40-441): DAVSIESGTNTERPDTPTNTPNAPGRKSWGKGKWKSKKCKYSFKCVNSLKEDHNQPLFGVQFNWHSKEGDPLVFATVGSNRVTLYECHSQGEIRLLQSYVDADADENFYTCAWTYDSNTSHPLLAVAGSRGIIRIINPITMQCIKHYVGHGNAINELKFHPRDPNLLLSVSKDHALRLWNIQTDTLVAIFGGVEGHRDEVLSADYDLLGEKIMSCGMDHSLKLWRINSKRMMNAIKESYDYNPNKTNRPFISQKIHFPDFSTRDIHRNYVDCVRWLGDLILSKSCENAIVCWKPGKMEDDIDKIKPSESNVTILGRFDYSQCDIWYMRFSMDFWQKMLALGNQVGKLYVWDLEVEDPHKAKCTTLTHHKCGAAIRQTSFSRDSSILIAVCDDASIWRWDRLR

Row | SMILES | pIC50
1 | O=C(Nc1ccc(Cl)cc1)N1CC=C(c2cnc(NCc3ccco3)n3cnnc23)CC1 [US11013745, Compound E-Y27] | 7.04
2 | O=C(Nc1ccc(Cl)cc1)N1CC=C(c2cnc(NCc3c(F)ccc4c3CCO4)n3cnnc23)CC1 [US11013745, Compound E-Y38] | 7.23
